Reference: PubChem BioAssay (NCI)
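Compound exposure: 48 hours, 5 concentrations, 96-well plates. GI50 is the concentration that inhibits growth by half. At the TGI there is no net growth.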

How the values were obtained:
Experiment in all cases: NCI-60 cell line screen, 48 h
HCT-116 colon = tested on: HCT-116 colon
UACC-257 melanoma = tested on: UACC-257 melanoma
SK-MEL-2 melanoma = tested on: SK-MEL-2 melanoma
CCRF-CEM leukemia = tested on: CCRF-CEM leukemia
A498 renal = tested on: A498 renal
HT29 colon = tested on: HT29 colon
ACHN renal = tested on: ACHN renal
NCI-H522 lung = tested on: NCI-H522 lung
PC-3 prostate = tested on: PC-3 prostate
MCF7 breast = tested on: MCF7 breast
M14 melanoma = tested on: M14 melanoma
NCI/ADR-RES ovarian = tested on: NCI/ADR-RES ovarian
HCC-2998 colon = tested on: HCC-2998 colon
K-562 leukemia = tested on: K-562 leukemia
CAKI-1 renal = tested on: CAKI-1 renal
SK-MEL-5 melanoma = tested on: SK-MEL-5 melanoma
DU-145 prostate = tested on: DU-145 prostate
IGROV1 ovarian = tested on: IGROV1 ovarian
SF-295 CNS = tested on: SF-295 CNS
TK-10 renal = tested on: TK-10 renal
SF-268 CNS = tested on: SF-268 CNS
MALME-3M melanoma = tested on: MALME-3M melanoma
NCI-H226 lung = tested on: NCI-H226 lung
SF-539 CNS = tested on: SF-539 CNS
SK-MEL-28 melanoma = tested on: SK-MEL-28 melanoma
UO-31 renal = tested on: UO-31 renal
MDA-MB-435 = tested on: MDA-MB-435
OVCAR-4 ovarian = tested on: OVCAR-4 ovarian
786-0 renal = tested on: 786-0 renal
HS 578T breast = tested on: HS 578T breast
UACC-62 melanoma = tested on: UACC-62 melanoma
SNB-75 CNS = tested on: SNB-75 CNS
HOP-92 NSCLC = tested on: HOP-92 NSCLC
U251 CNS = tested on: U251 CNS
MDA-MB-231 breast = tested on: MDA-MB-231 breast
A549 NSCLC = tested on: A549 NSCLC
LOX IMVI melanoma = tested on: LOX IMVI melanoma
EKVX NSCLC = tested on: EKVX NSCLC
COLO 205 colon = tested on: COLO 205 colon
OVCAR-3 ovarian = tested on: OVCAR-3 ovarian
NCI-H23 lung = tested on: NCI-H23 lung
SK-OV-3 ovarian = tested on: SK-OV-3 ovarian
SNB-19 CNS = tested on: SNB-19 CNS
MOLT-4 leukemia = tested on: MOLT-4 leukemia
SW-620 colon = tested on: SW-620 colon
MDA-MB-468 breast = tested on: MDA-MB-468 breast
T-47D breast = tested on: T-47D breast
OVCAR-5 ovarian = tested on: OVCAR-5 ovarian
HL-60(TB) leukemia = tested on: HL-60(TB) leukemia
SN12C renal = tested on: SN12C renal
SR leukemia = tested on: SR leukemia
NCI-H460 lung = tested on: NCI-H460 lung
HCT-15 colon = tested on: HCT-15 colon
BT-549 breast = tested on: BT-549 breast
RXF 393 renal = tested on: RXF 393 renal
HOP-62 NSCLC = tested on: HOP-62 NSCLC
KM12 colon = tested on: KM12 colon
OVCAR-8 ovarian = tested on: OVCAR-8 ovarian

Compound: CC(=O)Oc1ccccc1C(=O)[Se]C(=NC(C)C)NC(C)C
- GI50 (HCT-116 colon): 1600 nM
- TGI (HCT-116 colon): 3.14 µM
- GI50 (UACC-257 melanoma): 1960 nM
- TGI (UACC-257 melanoma): 3.75 µM
- GI50 (SK-MEL-2 melanoma): 1970 nM
- TGI (SK-MEL-2 melanoma): 4.01 µM
- GI50 (CCRF-CEM leukemia): 3.17 µM
- TGI (CCRF-CEM leukemia): > 100 µM
- GI50 (A498 renal): 3.34 µM
- TGI (A498 renal): 20.6 µM
- GI50 (HT29 colon): 2310 nM
- TGI (HT29 colon): 5.84 µM
- GI50 (ACHN renal): 1760 nM
- TGI (ACHN renal): 3.16 µM
- GI50 (NCI-H522 lung): 1690 nM
- TGI (NCI-H522 lung): 3.32 µM
- GI50 (PC-3 prostate): 1700 nM
- TGI (PC-3 prostate): 3.61 µM
- GI50 (MCF7 breast): 1950 nM
- TGI (MCF7 breast): 4 µM
- GI50 (M14 melanoma): 1840 nM
- TGI (M14 melanoma): 3.37 µM
- GI50 (NCI/ADR-RES ovarian): 2220 nM
- TGI (NCI/ADR-RES ovarian): 4.98 µM
- GI50 (HCC-2998 colon): 1860 nM
- TGI (HCC-2998 colon): 3.43 µM
- GI50 (K-562 leukemia): 2840 nM
- TGI (K-562 leukemia): 9.19 µM
- GI50 (CAKI-1 renal): 1680 nM
- TGI (CAKI-1 renal): 3.05 µM
- GI50 (SK-MEL-5 melanoma): 1830 nM
- TGI (SK-MEL-5 melanoma): 3.51 µM
- GI50 (DU-145 prostate): 1940 nM
- TGI (DU-145 prostate): 3.59 µM
- GI50 (IGROV1 ovarian): 1720 nM
- TGI (IGROV1 ovarian): 3.23 µM
- GI50 (SF-295 CNS): 369 nM
- TGI (SF-295 CNS): 1630 nM
- GI50 (TK-10 renal): 1630 nM
- TGI (TK-10 renal): 3.07 µM
- GI50 (SF-268 CNS): 2340 nM
- TGI (SF-268 CNS): 6.35 µM
- GI50 (MALME-3M melanoma): 1860 nM
- TGI (MALME-3M melanoma): 3.45 µM
- GI50 (NCI-H226 lung): 1840 nM
- TGI (NCI-H226 lung): 5.7 µM
- GI50 (SF-539 CNS): 1750 nM
- TGI (SF-539 CNS): 3.15 µM
- GI50 (SK-MEL-28 melanoma): 1790 nM
- TGI (SK-MEL-28 melanoma): 3.27 µM
- GI50 (UO-31 renal): 1680 nM
- TGI (UO-31 renal): 3.05 µM
- GI50 (MDA-MB-435): 1730 nM
- TGI (MDA-MB-435): 3.24 µM
- GI50 (OVCAR-4 ovarian): 1720 nM
- TGI (OVCAR-4 ovarian): 3.13 µM
- GI50 (786-0 renal): 1740 nM
- TGI (786-0 renal): 3.21 µM
- GI50 (HS 578T breast): 2400 nM
- TGI (HS 578T breast): 9.15 µM
- GI50 (UACC-62 melanoma): 1940 nM
- TGI (UACC-62 melanoma): 4.15 µM
- GI50 (SNB-75 CNS): 1350 nM
- TGI (SNB-75 CNS): 2660 nM
- GI50 (HOP-92 NSCLC): 1910 nM
- TGI (HOP-92 NSCLC): 4.32 µM
- GI50 (U251 CNS): 1530 nM
- TGI (U251 CNS): 3.2 µM
- GI50 (MDA-MB-231 breast): 2160 nM
- TGI (MDA-MB-231 breast): 4.96 µM
- GI50 (A549 NSCLC): 3.08 µM
- TGI (A549 NSCLC): > 100 µM
- GI50 (LOX IMVI melanoma): 1750 nM
- TGI (LOX IMVI melanoma): 3.42 µM
- GI50 (EKVX NSCLC): 1670 nM
- TGI (EKVX NSCLC): 3.16 µM
- GI50 (COLO 205 colon): 2350 nM
- TGI (COLO 205 colon): 5.06 µM
- GI50 (OVCAR-3 ovarian): 1900 nM
- TGI (OVCAR-3 ovarian): 3.56 µM
- GI50 (NCI-H23 lung): 1940 nM
- TGI (NCI-H23 lung): 4.15 µM
- GI50 (SK-OV-3 ovarian): 1810 nM
- TGI (SK-OV-3 ovarian): 3.33 µM
- GI50 (SNB-19 CNS): 1090 nM
- TGI (SNB-19 CNS): 2370 nM
- GI50 (MOLT-4 leukemia): 2350 nM
- TGI (MOLT-4 leukemia): 6.15 µM
- GI50 (SW-620 colon): 1920 nM
- TGI (SW-620 colon): 4.11 µM
- GI50 (MDA-MB-468 breast): 1750 nM
- TGI (MDA-MB-468 breast): 3.48 µM
- GI50 (T-47D breast): 2200 nM
- TGI (T-47D breast): 5.26 µM
- GI50 (OVCAR-5 ovarian): 1760 nM
- TGI (OVCAR-5 ovarian): 3.34 µM
- GI50 (HL-60(TB) leukemia): 2180 nM
- TGI (HL-60(TB) leukemia): 5.7 µM
- GI50 (SN12C renal): 1720 nM
- TGI (SN12C renal): 3.16 µM
- GI50 (SR leukemia): 2110 nM
- TGI (SR leukemia): 5.44 µM
- GI50 (NCI-H460 lung): 815 nM
- TGI (NCI-H460 lung): 4.39 µM
- GI50 (HCT-15 colon): 1840 nM
- TGI (HCT-15 colon): 3.69 µM
- GI50 (BT-549 breast): 1520 nM
- TGI (BT-549 breast): 2880 nM
- GI50 (RXF 393 renal): 1720 nM
- TGI (RXF 393 renal): 3.17 µM
- GI50 (HOP-62 NSCLC): 777 nM
- TGI (HOP-62 NSCLC): 2400 nM
- GI50 (KM12 colon): 1900 nM
- TGI (KM12 colon): 3.86 µM
- GI50 (OVCAR-8 ovarian): 1870 nM
- TGI (OVCAR-8 ovarian): 3.58 µM
